pIC50: −log10 of the molar value. Read-outs that look alike come from different tables or passages of the source. *1 amine or outer side, *2 acyl side, *3 side chain or, on linkers, in order; H or OH if unused. Where a SMILES comes first, the peptide text is derived from it. Bridges are numbered along the chain shown (N, C = ends). [ ]: non-standard residue; d: D form. NMehTyr = CN[C@@H](CCc1ccc(O)cc1)C(=O)O; hPhe = N[C@@H](CCc1ccccc1)C(=O)O; CO = O=C([*:1])[*:2]
Key:
chymotrypsin = chymotrypsin (Bos taurus, UniProt P00766); assay: Protease inhibition assay: chymotrypsin; assay type: biochemical; conditions: for inhibition of chymotrypsin, in words: discussion of Table 5
Experimental: (§1) Optical rotation values were obtained on a Jasco P-1010 polarimeter at the sodium D line (589 nm; concentrations are reported in g/100 mL. UV spectra were recorded on an Agilent 8453 spectrophotometer (Santa Clara, California, CA, USA). IR spectra were recorded on a Bruker Tensor 27 FT-IR instrument (Billerica, Massachusetts, MA, USA). NMR spectra were recorded on a Bruker DRX-500 spectrometer at 500.13 MHz for ^1H and 125.76 MHz for ^13C and a Bruker Avance 400 Spectrometer at 400.13 MHz for ^1H, 100.62 MHz for ^13C (Billerica, Massachusetts, MA, USA). DEPT, COSY-45, gTOCSY, gROESY, gHSQC, gHMQC and gHMBC spectra were recorded using standard Bruker pulse sequences. Mass spectra and MS/MS analyses were recorded on a Waters MaldiSynapt instrument (Milford, Massachusetts, MA, USA). HPLC separations were performed on a Jasco HPLC system (Halifax, Nova-Scotia, NS, Canada) (Model PU-2080-plus pump, Model LG-2080-04 Quaternary gradient unit and Model MD-2010-plus Multi-wavelength detector). An Elisa ELx808 reader (Bio-Tek Instruments, Inc (Winooski, VT, USA)) was used for protease inhibition assays.
(§2) The procedures used to determine the inhibitory activity of the new compounds on trypsin and chymotrypsin were described in a previous paper. The range of concentrations used in the assays was between 45.5 μM and 0.011 μM.

trypsin [1] = biological target: T1, trypsin (Bos taurus, UniProt P00760); assay: Protease inhibition assay: trypsin; assay type: biochemical; conditions: discussion of Table 5
T1 sequence (P00760 24-246): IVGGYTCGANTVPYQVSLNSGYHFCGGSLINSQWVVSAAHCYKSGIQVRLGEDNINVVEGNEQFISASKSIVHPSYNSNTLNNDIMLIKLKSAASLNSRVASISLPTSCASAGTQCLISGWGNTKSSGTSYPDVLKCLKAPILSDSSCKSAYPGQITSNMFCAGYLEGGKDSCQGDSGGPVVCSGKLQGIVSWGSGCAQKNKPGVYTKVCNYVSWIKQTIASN
Experimental: as §1, §2

trypsin [2] = biological target: T1, trypsin; parameters: method as in PMID 22280481; conditions: read-out: IC50 (against trypsin); cited from earlier work

Structure (SMILES) | pIC50 (chymotrypsin) | also measured
CCCCCC(=O)N[C@@H](CC(=O)OC)C(=O)N[C@@H]1C(=O)N[C@@H](CCCNC(=N)N)C(=O)N[C@H]2CC[C@@H](OC)N(C2=O)[C@@H]([C@@H](C)CC)C(=O)N(C)[C@@H](Cc2ccc(O)c(Cl)c2)C(=O)N[C@@H]([C@H](C)CC)C(=O)O[C@@H]1C [Micropeptin KB1048 (11), Micropeptin KB1048] | 6.20 | inhibition of chymotrypsin, in words (chymotrypsin): inhibition of chymotrypsin
CCCCCC(=O)N[C@@H](CC(=O)O)C(=O)N[C@@H]1C(=O)N[C@@H](CCCNC(=N)N)C(=O)N[C@H]2CC[C@@H](OC)N(C2=O)[C@@H](C(C)C)C(=O)N(C)[C@@H](Cc2ccccc2)C(=O)N[C@@H]([C@@H](C)CC)C(=O)O[C@@H]1C [Micropeptin KB970B (8), Micropeptin KB970B] | < 4.34 | 
CCCCCC(=O)N[C@@H](CC(=O)OC)C(=O)N[C@@H]1C(=O)N[C@@H](CCCNC(=N)N)C(=O)N[C@H]2CC[C@@H](OC)N(C2=O)[C@@H](C(C)C)C(=O)N(C)[C@@H](Cc2ccccc2)C(=O)N[C@@H]([C@@H](C)CC)C(=O)O[C@@H]1C [Micropeptin KB984 (9), Micropeptin KB984] | < 4.34 | 
CC(C)=CCN(CCCCNC(=O)C1CC2CCC(O)CC2N1C(=O)C(Cc1ccccc1)NC(=O)C(O)Cc1ccc(O)cc1)C(=N)N (centres unmarked) [Aeruginosin KB676 (1), Aeruginosin KB676] |  | IC50 (chymotrypsin; concentration range 45.5 μM to 0.011 μM, read-out: Chymotrypsin (IC50 in μM)): > 45.5 µM; inhibition of trypsin, in words (trypsin [1]): weak inhibitory activity
NC(N)=NCCCCNC(=O)[C@H]1C[C@H]2CC[C@@H](O)C[C@H]2N1C(=O)[C@@H](Cc1ccccc1)NC(=O)[C@H](O)Cc1ccc(O)cc1 [aeruginosin KT608B] |  | pIC50 (trypsin [2]): 5.89
CCCC(=O)N[C@@H](CC(=O)OC)C(=O)N[C@@H]1C(=O)N[C@@H](CCCNC(=N)N)C(=O)N[C@H]2CC[C@@H](OC)N(C2=O)[C@@H](C(C)C)C(=O)N(C)[C@@H](Cc2ccccc2)C(=O)N[C@@H]([C@@H](C)CC)C(=O)O[C@@H]1C [Micropeptin KB956 (6), Micropeptin KB956] | < 4.34 | 
CCCCCC(=O)N[C@@H](CC(=O)OC)C(=O)N[C@@H]1C(=O)N[C@@H](CCCNC(=N)N)C(=O)N[C@H]2CC[C@@H](O)N(C2=O)[C@@H](C(C)C)C(=O)N(C)[C@@H](Cc2ccccc2)C(=O)N[C@@H]([C@@H](C)CC)C(=O)O[C@@H]1C [Micropeptin KB970A (7), Micropeptin KB970A] | < 4.34 | 
CCCC(=O)N[C@@H](CC(=O)O)C(=O)N[C@@H]1C(=O)N[C@@H](CCCNC(=N)N)C(=O)N[C@H]2CC[C@@H](O)N(C2=O)[C@@H](C(C)C)C(=O)N(C)[C@@H](Cc2ccccc2)C(=O)N[C@@H]([C@@H](C)CC)C(=O)O[C@@H]1C [Micropeptin KB928 (5), Micropeptin KB928] | < 4.34 | 
CC(C)C[C@@H]1NC(=O)[C@@H]2CCCN2C(=O)[C@H](C)NC(=O)[C@H](CCC(N)=O)NC(=O)[C@H](C)NC(=O)[C@H](Cc2ccccc2)NC(=O)[C@H](Cc2ccccc2)NC(=O)[C@H](Cc2ccccc2)NC1=O [Microphycin KB921 (2), Microphycin KB921] (cyclo(APLFFFAQ)) | < 4.34 | 
CC[C@H](C)[C@@H]1NC(=O)[C@H](NC(=O)N[C@@H](CCCNC(=N)N)C(=O)O)CCCCNC(=O)[C@H]([C@@H](C)CC)NC(=O)[C@H](CCc2ccc(O)cc2)N(C)C(=O)[C@H](CCc2ccccc2)NC1=O [Anabaenopeptin KB906 (3), Anabaenopeptin KB906] ({Arg-CO}-[dK]I[hPhe][NMehTyr]I; lactam 1-C) | < 4.34 | 
CC[C@H](C)[C@H]1C(=O)N(C)[C@@H](Cc2ccccc2)C(=O)N[C@@H](C(C)C)C(=O)O[C@H](C)[C@H](NC(=O)[C@H](CC(N)=O)NC(=O)[C@H](O)Cc2ccc(O)cc2)C(=O)N[C@@H](CC(C)C)C(=O)N[C@H]2CC[C@@H](OC)N1C2=O [Micropeptin KB992 (12), Micropeptin KB992] | 6.06 | inhibition of chymotrypsin, in words (chymotrypsin): inhibition of chymotrypsin
CCCCCC(=O)N[C@@H](CC(=O)OC)C(=O)N[C@@H]1C(=O)N[C@@H](CCCNC(=N)N)C(=O)N[C@H]2CC[C@@H](OC)N(C2=O)[C@@H](C(C)C)C(=O)N(C)[C@@H](Cc2ccccc2)C(=O)N[C@@H](C(C)C)C(=O)O[C@@H]1C [Micropeptin KB970C (10), Micropeptin KB970C] | < 4.34 | 
CC[C@H](C)[C@@H]1NC(=O)[C@H](Cc2ccccc2)N(C)C(=O)[C@H](C(C)C)N2C(=O)[C@H](CC[C@H]2O)NC(=O)[C@H](C[C@H]2C=C[C@H](O)CC2)NC(=O)[C@@H](NC(=O)[C@H](CCC(N)=O)NC(=O)[C@H](O)Cc2ccc(O)cc2)[C@@H](C)OC1=O [Micropeptin KB1046 (13), Micropeptin KB1046] | 6.66 | inhibition of chymotrypsin, in words (chymotrypsin): inhibition of chymotrypsin

Source: paper PMC4413215, “New Prenylated Aeruginosin, Microphycin, Anabaenopeptin and Micropeptin Analogues from a Microcystis Bloom Material Collected in Kibbutz Kfar Blum, Israel” (Marine Drugs, 2015)
